Test results published in patent US20190292572A1, “Novel protic or phosphate-based ionic liquids useful for lignocellulosic processing” (priority 2016, published 2019).
Read-outs that look alike come from different tables or passages of the source.

Key:
[1] = Biomass pretreatment using PBIL: enzymatic saccharification glucose yield
pH of ILs = type: physicochemical
cellulases = details: previous literatures; cited from earlier work
[2] = One-pot pretreatment and SSF (cellulosic ethanol production); set-up: species or system Panicum virgatum; details: for theoretical ethanol yield: SSF
Protocol: (§1) FIG. 6A. Process optimization of one-pot ethanol fermentation after [EOA][OAc] pretreatment. Effect of yeast loading on ethanol fermentation. Conditions: pretreatment, 40 wt % SG loading, 60 wt % IL, 160° C., 0.5 h; saccharification, 5 wt % IL, 20 mg protein/g SG, pH 5, 50° C., 24 h; fermentation, 37° C., 72 h.
as §1, with “6B.” for “6A.”, “Illustration” for “Effect”, “the glucose consumption and” for “yeast loading on”, “production during SSF.” for “fermentation.”
FIG. 7. Illustration of the glucose consumption and ethanol production during SSF. Conditions: pretreatment, 40 wt % SG loading, 60 wt % IL, 160° C., 0.5 h; saccharification, 5 wt % IL, 20 mg protein/g SG, 50° C., 24 h; fermentation, 37° C., 72 h.
In a typical procedure, SG (100 mg) was mixed with ([EOA][OAc]) at a 40% biomass loading in a 15 mL capped glass pressure tube and pretreated in a convection oven at 160° C. for 0.5 h. After pretreatment, the pretreated slurry was diluted with DI-water to obtain a final IL concentration of 5 wt %, and pre-saccharificated for 24 h under the same aforementioned conditions. Simultaneously, wide type yeast strain BY4741 was prepared. After the addition of yeast strain, the SSF step was conducted for 72 hrs.

[3] = IL pretreatment and saccharification of different feedstocks: corn stover; details: corn stover (FIG. 4D)
Protocol: (§2) FIG. 4D. Effects of some parameters on the sugar yield: Biomass category. Normal operation conditions: pretreatment, 10 wt % SG loading, 90 wt % IL, 160° C., 0.5 h (3 h for ecucalyptus); saccharification, 10 wt % IL, 20 mg protein/g SG, 50° C., 72 h.
(§3) Thereafter, we explored the feasibilities of [EOA][OAc] for the pretreatment of different feedstocks including mixed feedstocks of SG and eucalyptus (1:1, w/w), eucalyptus (EU), and corn stover (CS).

[4] = IL pretreatment and saccharification of different feedstocks: mixed feedstocks; details: mixed feedstocks SG and eucalyptus 1:1 (FIG. 4D)
Protocol: as §2, §3

[5] = One-pot IL pretreatment and enzymatic saccharification (sugar yield); set-up: species or system Panicum virgatum; details: for yield of glucose / yield of xylose: 160 °C
Protocol: FIG. 3. Effect of IL type on the sugar yield (pretreatment: 10 wt % SG loading, 90 wt % IL, 140° C., 1 h, saccharification: 10 wt % IL, 10 mg protein per g switchgrass, 50° C., 72 h.
FIG. 4A. Effects of some parameters on the sugar yield: Biomass loading at pretreatment. Normal operation conditions: pretreatment, 10 wt % SG loading, 90 wt % IL, 160° C., 0.5 h (3 h for ecucalyptus); saccharification, 10 wt % IL, 20 mg protein/g SG, 50° C., 72 h.
FIG. 4B. Effects of some parameters on the sugar yield: Temperature/time. Normal operation conditions: pretreatment, 10 wt % SG loading, 90 wt % IL, 160° C., 0.5 h (3 h for ecucalyptus); saccharification, 10 wt % IL, 20 mg protein/g SG, 50° C., 72 h.
In a typical procedure, SG (100 mg) was mixed with ([EOA][OAc]) at a 10% biomass loading in a 15 mL capped glass pressure tube and pretreated in a convection oven at 160° C. for 0.5 h. Untreated raw SG (30-40 mesh) was used as a control. […] Enzymatic saccharification step was operated at 50° C. for 72 hrs with constant agitation on an Enviro Genie SI-1200 rotator platform (Scientific Industries, Inc., Bohemia, N.Y.). The loading of enzyme cocktails (9CTec2/HTec2, v/v) is 20 mg EP per g SG.

[6] = Compositional analysis of switchgrass after IL pretreatment; set-up: species or system Panicum virgatum; details: higher temperature pretreatment vs untreated
Source text: Thus, compositional analysis of untreated, and pretreated SG with [EOA][OAc] at different temperatures and time was studied and the results were summarized in Table 4. Solid recovery refers to the mass percentage of biomass (dry weight) recovered from the original biomass load. After washing, 55-81% of the biomass was recovered. […] Untreated SG contained 29.6% glucan, 18.4% xylan and 20% acid insoluble lignin (entry 1). […] This trend was most obvious after pretreatment under higher temperature where lignin content was reduced by 77% (untreated: 20% vs. pretreated: 4.7%). […] IL are consistent with our previous report by using basic ILs such as [Ch][Lys] and [C2C1Im][Lys].^13
Compositional analysis of SG before and after pretreatment was performed using NREL acidolysis protocols (LAP) LAP-002 and LAP-005, which was described in our previous work.^13 In a typical process, 200 mg of biomass and 2 mL of 72 wt % H2SO4 were incubated at 30° C. while shaking at 300 rpm for 1 h. The solution was diluted to 4 wt % H2SO4 with 56 mL of DI water and autoclaved for 1 h at 121° C. […] Carbohydrate concentrations were determined from the filtrate using an Agilent HPLC 1200 Series equipped with a Bio-Rad Aminex HPX-87H column and a Refractive Index detector. […] Acid insoluble lignin was quantified gravimetrically from the solid after heating overnight at 105° C. […]

[7] = IL pretreatment and saccharification of different feedstocks: eucalyptus; details: 3 h pretreatment (FIG. 4D)
Protocol: as §2, §3

[8] = test system: Saccharomyces cerevisiae strain BY4741; test: Toxicity test: yeast growth in IL solution; type: cell-based
Protocol: FIG. 5A. Toxicity test of [EOA][OAc] (A) and effect of biomass loading on sugar yield (B). Conditions: yeast strain: Saccharomyces cerevisiae strain BY4741, growth condition: in 24-well microplate with orbital-high intensity shaking/31° C./in IL solution (10 g/L glucose in each IL solutions), volume of the cell culture was 0.5 mL.
For toxicity screening, a wild type S. cerevisiae BY4741 strain was technically used and it was immersed in various IL concentrations from 2.5 to 15 wt %.

[9] = T/t 140/1, IL concentration not given
[10] = optimized conditions, short time pretreatment

CCCCN(CCCC)CCCC.O=P(O)(O)O [[N444][H2PO4]]
Enzymatic Saccharification Glucose yield % ([1]; T/t 50/3): 13.4 ± 2.6%
Enzymatic Saccharification Glucose yield % ([1]; T/t 90/3): 16.2 ± 0.6%
ILs pH (pH of ILs; Table 5): 4.5

NCCCC[C@H](N)C(=O)O.NCCO [EA-lysinate-m 1]
pH (pH of ILs; Table 2): 9

CC(=O)[O-].CCn1cc[n+](C)c1 [[C2C1Im][OAc], 1-ethyl-3-methyl imidazolium acetate]
IL concentration known to deactivate cellulases (cellulases): ~5 wt %

dimethylammonium dimethylcarbamate
Enzymatic Saccharification Glucose yield % [1, 9]: 55.2 ± 3.9%

Cholinium bicarbonate [[Ch][Bicarbonate]]
Enzymatic Saccharification Glucose yield % [1, 9]: 52.8 ± 4.3%

C[N+](C)(C)CCO.C[N+](C)(C)CCO.C[N+](C)(C)CCO.O=P([O-])([O-])[O-] [[Ch]3[PO4]]
Enzymatic Saccharification Glucose yield % ([1]; T/t 140/1, IL 20%): 54.6%
Enzymatic Saccharification Glucose yield % ([1]; T/t 140/1, IL 50%): 61.1%
Enzymatic Saccharification Glucose yield % ([1]; T/t 140/1, IL 100%): 61.8%
pH (pH of ILs): 12.5

NCCO.O=P(O)(O)O [EA-dihydrogenphosphate]
pH (pH of ILs; Table 2): 4.5

CC(=O)O.NCCO [[EOA][OAc], ethanolamine acetate]
theoretical ethanol yield ([2]; 40 wt % SG loading at pretreatment): 70%
theoretical ethanol yield ([2]; yeast loading 0.1 wt % (1 g/L)): around 70%
ethanol produced ([2]; from the glucan present in 1 kg of SG): 117 g
overall conversion in one-pot ([2]; glucan balance, FIG. 7): 70%
glucose from saccharification converted to ethanol ([2]; glucan/glucose balance, FIG. 7): over 90%
ethanol yield versus yeast loading ([2]; yeast loading increased from 0.01 to 0.21 wt % (FIG. 6A)): no significant difference in ethanol yield
sugar yields [3]: best performance
sugar yields [4]: low sugar yields
glucose yield ([5]; 10% SG loading, 160 °C pretreated sample): ~85%
glucose yield ([5]; 40 wt % starting biomass loading (60 wt % IL), diluted to 5 wt % IL in saccharification (FIG. 5B)): comparative glucose yield with 20 wt % starting biomass loading
yield of glucose ([5]; pretreatment time 0.5 hrs): 85%
yield of xylose ([5]; pretreatment time 0.5 hrs): 35%
yield of glucose ([5]; pretreatment time 3 hrs): 87%
yield of xylose ([5]; pretreatment time 3 hrs): 42%
glucose yield ([5]; SG loading 25 wt %): Around 60%
glucose yield ([5]; biomass loading 5 to 20 wt % at pretreatment (FIG. 4A)): more than 75%
increase in digestibility of SG ([5]; from 140 to 160 °C): over 40%
sugar yield, IL screening ([5]; low pretreatment temperature and low enzyme loading (FIG. 3: 140 °C, 1 h, 10 mg protein per g switchgrass)): best performance
glucose (monomers) liberated from switchgrass [5, 10]: 85%
xylose (monomers) liberated from switchgrass [5, 10]: 35%
digestibility of SG ([5]; pretreatment 140 °C (FIG. 4B)): 60%
digestibility of SG ([5]; pretreatment 160 °C (FIG. 4B)): 85%
glucose released from SG ([5]; pretreatment 160 °C, 15 min): 45%
lignin content reduced by [6]: 77%
sugar yields [7]: low sugar yields
yeast growth ([8]; 5 wt % IL concentration): better yeast growth
IL titer at which better yeast growth occurs ([8]; IL concentrations from 2.5 to 15 wt %, FIG. 5A): below 10 wt %

C[N+](C)(C)CCO.C[N+](C)(C)CCO.O=P([O-])([O-])O [[Ch]2[HPO4]]
Enzymatic Saccharification Glucose yield % ([1]; T/t 140/1, IL 20%): 61.9%
Enzymatic Saccharification Glucose yield % ([1]; T/t 140/1, IL 50%): 55.1%
Enzymatic Saccharification Glucose yield % ([1]; T/t 140/1, IL 100%): 49.7%
pH (pH of ILs): 8

C[N+](C)(C)CCO.O=P([O-])(O)O [[Ch][H2PO4], Cholinium dihydrogen-phosphate]
Enzymatic Saccharification Glucose yield % ([1]; T/t 140/1, IL 20%): 17.5%
Enzymatic Saccharification Glucose yield % ([1]; T/t 140/1, IL 50%): 16.9%
Enzymatic Saccharification Glucose yield % ([1]; T/t 140/1, IL 100%): 14.4%
pH (pH of ILs): 4.5
pH (pH of ILs; Table 2): 4.5

CCCCn1cc[n+](C)c1.[Cl-] [[C4C1Im][Cl], 1-n-butyl-3-methylimidazolium chloride]
IL concentration known to deactivate cellulases (cellulases): ~5 wt %
